Results taken from patent publication US10145851B2, “Discovery and validation of cancer biomarkers using a protein analysis methodology to analyze specimens” (The Board of Trustees of the Leland Stanford Junior …, priority 2009, dated 2018).
“Also recorded” adds a separate entry of the source. Structures can show the parent of a compound that is named as a salt.

Assays:
[1] = test system: human leukemic cell line TF1; experiment: NIA of TF1 cells before and after treatment with ON01910; assay type: cell-based
Protocol: Using a single antibody that recognizes both the phosphorylated and unphosphorylated isoforms of ERK, we can determine levels of each ERK isoform, and also percent phosphorylation of ERK. […] To determine if NIA can measure signaling changes during treatment with novel drugs, human leukemic cells were treated with a PLK-1 inhibitor, ON01910 (Onconova, Inc). […] MEK2 phosphorylation decreased by 20% after ON01910 treatment. […] Treatment with ON01910 altered phosphorylation of signaling proteins in TF1 cells.

[2] = test system: phosphorylation of STAT3/5; experiment: NIA/FACS of tumor cells of lymphoma patients treated with atorvastatin; assay type: in vivo, human
Excerpt: FIG. 5A-5C. NIA detected decrease in oncoproteins upon treatment with biologic response modifying therapeutic agent. (FIG. 5A) Schematic for the use of NIA to assess proteomic changes in clinical tumor specimens. Patients undergo pretreatment tumor sampling at baseline and again after 8 d of treatment with atorvastatin. (FIG. 5B) NIA analysis of tumor cells for changes in pSTAT3 and pSTAT5. (FIG. 5C) NIA quantification of pSTAT3 and pSTAT5±s.e.m. Samples were run in triplicate.
Predicted pl's were calculated using Scansite.
Phosphorylation of STAT3/5 decreased in lymphoma patients treated with atorvastatin. Tumor cells were sampled from lymphoma patients day 1 and day 8 of atorvastatin treatment.

mouse model of lymphoma = settings: associated with specific changes in oncoprotein signaling; cited from earlier work
K562 human CML cell line = experiment: NIA of K562 CML cells treated with imatinib in vitro; assay type: cell-based; set-up: activated caspase-3 associated with apoptosis: dose or concentration left out as unconfirmed
Protocol: The NIA experiments were performed using a Firefly™ or CB1000™ instrument (Cell Biosciences). Briefly, for each capillary analysis, 4 nanoliters of 10 mg/ml lysate were diluted to 0.2 mg/ml in 200 nanoliters HNG-based lysis buffer [20 mM Hepes pH 7.5, 25 mM NaCl, 0.1%, 10% glycerol, Sigma Phosphatase Inhibitor Cocktail 1, Calbiochem Protease Inhibitor] or 200 nanoliters Bicine/CHAPS lysis buffer. 200 nanoliters sample mix containing internal pl standards were added. The Firefly system first performed a charge-based separation (isoelectric focusing) in a 5 cm long, 100 micron inner-diameter capillary. Predicted pl's were calculated using Scansite. Each sample was run on a panel of different pH gradients (3-10, 5-9) to optimize the resolution of different peak patterns. After separation and photo-activated in-capillary immobilization, proteins were detected with antibodies: MYC protein expression was detected using the C-19 rabbit polyclonal antibody that recognizes mouse and human MYC (Santa Cruz Biotechnology). BCL2 protein expression was detected using the clone 124 mouse monoclonal antibody that recognizes human BCL2 (Dako Laboratories). Total ERK1/2 protein expression was detected using a rabbit polyclonal antibody that recognizes mouse and human ERK1/2 (Upstate). Phospho-ERK 1/2 protein expression was detected using a mouse monoclonal antibody that recognizes both mouse and human pERK 1/2 (Cell Signaling). Additional antibodies used were: activated caspase 3 (Cell Signaling), MEK1 (Upstate), pMEK1 (Novus), MEK2 (Abcam), pSTAT3 (Cell Signaling), pSTAT5 (Cell Signaling), pJNK (Cell Signaling), HSP70 (Novus).
Quantitation of the peaks is performed using peak analysis software. The start and end of each peak, and a flat baseline were manually selected. The area of each peak was calculated by dropping verticals to the baseline at the peak start and end, and summing the area between the start and endpoints. […] The areas under different peaks within a single tracing represented various ERK isoforms. […]

[3] = TF1 cells after 24 hr of treatment

Structure (SMILES): COc1cc(OC)c(/C=C/S(=O)(=O)Cc2ccc(OC)c(NCC(=O)O)c2)c(OC)c1 [ON01910]
- MEK2 phosphorylation decrease ([1]; TF1 cell line after ON01910 treatment): 20%
- phosphorylation of JNK [1, 3]: increased phosphorylation
- phosphorylation of MEK2 [1, 3]: decreased phosphorylation

Structure (SMILES): CC(C)c1c(C(=O)Nc2ccccc2)c(-c2ccccc2)c(-c2ccc(F)cc2)n1CC[C@@H](O)C[C@@H](O)CC(=O)O [atorvastatin]
- phosphorylation of STAT3/5 ([2]; after eight days of treatment, NIA): detectable decreases; also recorded: decreased
- STAT3 and STAT5 phosphorylation in CD20 positive cells ([2]; day 1 and day 8 of treatment, NIA and FACS): dramatic decrease
- tumor regression (mouse model of lymphoma): causes tumor regression

Structure (SMILES): Cc1ccc(NC(=O)c2ccc(CN3CCN(C)CC3)cc2)cc1Nc1nccc(-c2cccnc2)n1 [imatinib, imatinib mesylate]
- phosphorylation of STAT3/5, JNK, MEK1 and MEK2 (K562 human CML cell line; K562, imatinib final concentration 10 mM in vitro, 0 h, 4 h and 20 h): changes in phosphorylation
- activated caspase-3 associated with apoptosis (K562 human CML cell line; K562, imatinib in vitro, 0 h, 4 h and 20 h): expected increase
- specific ERK2 phospho-isomer (peak 3) (K562 human CML cell line; K562, imatinib in vitro, 24 hours): decrease; also recorded: change in phospho-ERK
